The values that follow come from PubChem BioAssay AID1963420 (Molecular Pharmacology Branch, DTP, NCI, 2024).

Several values for one entry are separate records, joined by “and”; a condition that tells them apart may be missing. Identical values can stand only once. Where only a bound is given, the exact number is not on record here.

For the assay, the system named is 494315-158-R-J1-PDC complex spheroid growth, percent test/control. In words: Anticancer human tumor 494315-158-R-J1-PDC patient-derived soft tissue sarcoma cell line growth inhibition [Asc]. Particulars: for viability, T/C: stronger effect = lower value. As to the method: Multicellular complex tumor spheroid response to apoptosis pathway targeting inhibitors Alrizomadlin, Pelcitoclax, and Dasminapant in combination with a variety of drugs and investigational agents in selected tumor cell lines
The MDM2 inhibitor alrizomadlin, the Bcl-2/Bcl-xL inhibitor pelcitoclax, and the IAPs inhibitor dasminapant were evaluated both individually and in combination with standard of care and investigational anticancer small molecules within a complex spheroid model of solid tumors. . Complex spheroids include a stromal component modeled by human endothelial cells (HUVEC) and fibroblasts modeled by human mesenchymal stem cells (MSCs). The concentration ranges selected for each drug and investigational agent were based upon clinically achievable concentrations if the clinical Cmax of the agent was known.
Compounds. The drugs and investigational agents: alrizomadlin (APG-115; NSC831270), pelcitoclax (APG-1252; NSC835773), dasminapant (APG-1387;NSC834197), TAK-243 (NSC785004), copanlisib (NSC809693), olaparib (NSC753686), talazoparib (NSC767125), cobimetinib (NSC 768068), eltanexor (KPT-8602, NSC 794443), abemaciclib (NSC 768073), sotorasib (NSC818433), adagrasib (NSC 831453), MRTX-1133 (NSC 836407), Iadademestat (ORY1001, NSC 806812), and RMC-4630 (NSC839698), were obtained from the NCI Developmental Therapeutics Program Chemical Repository. The FDA-approved anticancer drug set is available from the Developmental Therapeutics Program at https://dtp.cancer.gov/organization/dscb/obtaining/available plates.htm. […] The stock solutions were prepared in dimethyl sulfoxide (DMSO, Sigma-Aldrich, St. Louis, MO, cat. D2650) at 800-fold the tested concentration and stored at -70 degrees C prior to their use. All drugs and investigational agents were tested over a range starting from a high concentration at or near the clinical Cmax and decreasing in half-log increments. If the clinical Cmax for an agent had not been determined, the highest concentration tested was 10 microM.
The patient-derived cancer (PDC) cell lines include five colon adenocarcinomas: 186277-243-T-J2-PDC, 616215-338-R-J1-PDC, 439559-082-T-J2-PDC, 463943-066-T-J2-PDC, and 519858-162-T-J1-PDC; three pancreatic carcinomas: 323965-272-R-J2-PDC, 521955-158-R6-J3-PDC, and 521955-158-R2-J5-PDC; two uterine sarcomas: 327498-152-R-J2-PDC and 993429-296-R-J1-PDC; two rhabdomyosarcomas: 755483-174-R-J1-PDC and 772245-204-R-J1-PDC; two soft tissue sarcomas: 126254-015-R-J1-PDC and 494315-158-R-J1-PDC; two malignant fibrous histiocytomas: 317291-083-R-J1-PDC and 596521-263-R-J1-PDC; two breast carcinomas: 171881-019-R-J1-PDC and 885512-296-R-J2-PDC; and one ovarian carcinoma: 6556581-035-R-J-PDC were obtained from the NCI PDMR, (https://pdmr.cancer.gov). The established cell lines HSSY-2 synovial sarcoma (RRID:CVCL 8719), SYO-1 synovial sarcoma (RRID:CVCL_7146), MPNST malignant peripheral neural sheath tumor were obtained from the Sloan Kettering Institute. The following established cell lines were purchased from the American Type Culture Collection (ATCC, Manassas, VA), Sor the received from the NCI repository:, PANC-1 pancreatic carcinoma (CRL-1469, RRID:CVCL_0480), OVCAR-5 ovarian carcinoma (RRID:CVCL_1628), OVCAR-8 ovarian carcinoma (RRID:CVCL_1629), , MCF-7 breast carcinoma (CRL-12584, RRID:CVCL_0031), MDA-MB-231 breast carcinoma (CRL-12532, RRID:CVCL_0062), NCI-H1876 small cell lung carcinoma (CRL-5902, RRID:CVCL_1503), NCI-H510A small cell lung carcinoma (HTB-184, RRID:CVCL_1565), NCI-H1417 (CRL-5869, RRID:CVCL_1469), and NCI-H196 small cell lung carcinoma (CRL-5823, RRID:CVCL_1509). Dr. Peter Houghton (Greehey Children's Cancer Research Institute, University of Texas Health Science Center, San Antonio, TX) provided Rh-18 rhabdomyosarcoma (RRID:CVCL_1659). Pooled donor human umbilical vein endothelial cells (HUVEC, Lonza, cat. CC-2519) and human mesenchymal stem cells (hMSC, Lonza, cat. PT-2501) were purchased from Lonza (Walkersville, MD).
Cell Culture. […]

Setting [1] is: compound alone, run of 09/27/2022.
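Note: compound exposure lasted seven days after spheroids formed for three days.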

In the case of `C#Cc1c(F)ccc2cc(O)cc(-c3ncc4c(N5CC6CCC(C5)N6)nc(OCC56CCCN5CC(F)C6)nc4c3F)c12` (stereo not drawn), the viability, T/C is 107% and 98.9% and 87.7% (compound 0.0316 µM); 109% and 102% and 108% (compound 0.1 µM); 107% and 98.4% and 99.9% (compound 0.316 µM); 107% and 104% and 95.3% (compound 1 µM); 120% and 97.1% and 100% (compound 3.16 µM); 103% and 86.4% and 91.4% (compound 10 µM). Further, the concentration for half-maximal inhibition (IC50) (curve of compound) was more than 10000 nM.

For the compound `C=C(F)C(=O)N1CCN(c2nc(OCC3CCCN3C)nc3c2CCN(c2cccc4cccc(Cl)c24)C3)CC1CC#N` (stereo not drawn), the viability, T/C by setting is: (compound 0.0316 µM) 89.2% and 99.6% and 84.3%; (compound 0.1 µM) 92.5% and 97.5% and 96.5%; (compound 0.316 µM) 88.7% and 82.5% and 97.6%; (compound 1 µM) 84.9% and 84.5% and 86.7%; (compound 3.16 µM) 62% and 51.7% and 68.6%; (compound 10 µM) 0.23% and 0.25% and 0.24%. In addition, for the setting “curve of compound”, the IC50 is 3950 nM and 3360 nM and 4310 nM.

In the case of `C=CC(=O)N1CCN(c2nc(=O)n(-c3c(C)ccnc3C(C)C)c3nc(-c4c(O)cccc4F)c(F)cc23)C(C)C1` (stereo not drawn), the viability, T/C by setting is: (compound 0.0316 µM) 105% and 116% and 107%; (compound 0.1 µM) 109% and 108% and 91.3%; (compound 0.316 µM) 103% and 101% and 104%; (compound 1 µM) 113% and 112% and 105%; (compound 3.16 µM) 112% and 113% and 101%; (compound 10 µM) 98.8% and 110% and 109%. The IC50 (curve of compound) is more than 10000 nM.

Turning to `CCN1C(C(=O)NC23CCC(C(=O)O)(CC2)CC3)C(c2cccc(Cl)c2F)C2(C(=O)Nc3cc(Cl)ccc32)C12CCCCC2` (stereo not drawn), the viability, T/C (compound 0.00949 µM) is 86.2% and 96.4%. Also, the IC50 reads like this: under setting [1], more than 3000 nM; (curve of compound) more than 3000 nM.

As for `CCN1CCN(Cc2ccc(Nc3ncc(F)c(-c4cc(F)c5nc(C)n(C(C)C)c5c4)n3)nc2)CC1`, the viability, T/C runs as follows: (compound 0.00316 µM) 86.4% and 118% and 98.1%; (compound 0.01 µM) 95.3% and 99.7% and 103%; (compound 0.0316 µM) 97.3% and 110% and 101%; (compound 0.1 µM) 94.9% and 96.2% and 93.2%; (compound 0.316 µM) 86.4% and 92.8% and 116%; (compound 1 µM) 87% and 91.4% and 104%. Also, the IC50 (curve of compound) was more than 1000 nM.

`CNC(C)C(=O)NC1CN(S(=O)(=O)c2cccc(S(=O)(=O)N3CCC4CCC(C(=O)NC(c5ccccc5)c5ccccc5)N4C(=O)C(NC(=O)C(C)NC)C3)c2)CCC2CCC(C(=O)NC(c3ccccc3)c3ccccc3)N2C1=O` (stereo not drawn): the viability, T/C (compound 0.00316 µM) is 79% and 74.7%; the viability, T/C (compound 0.01 µM) is 69.1% [middle of 15 runs]; the viability, T/C (compound 0.0316 µM) was 58.5% [middle of 15 runs]; the viability, T/C (compound 0.1 µM) is 51.9% [middle of 15 runs]; the viability, T/C (compound 0.316 µM) is 45% [middle of 15 runs]; the viability, T/C (compound 1 µM) is 39.2% [middle of 15 runs]. Moreover, under “curve of compound”, the IC50 was 46.1 nM and 28.9 nM.

In the case of `COc1c(OCCCN2CCOCC2)ccc2c3n(c(=NC(=O)c4cnc(N)nc4)nc12)CCN3`, the viability, T/C reads like this: (compound 0.00316 µM) 87.8% and 87% and 82.3%; (compound 0.01 µM) 79.6% and 80.4% and 82.8%; (compound 0.0316 µM) 56.8% and 58.9% and 54.3%; (compound 0.1 µM) 37% and 32% and 34%; (compound 0.316 µM) 20.7% and 21.1% and 18%; (compound 1 µM) 16.9% and 20.5% and 16.8%. Also, the IC50 (curve of compound) was 48 nM and 46 nM and 44.1 nM.

In the case of `Cc1c(S(C)(=O)=O)c(-c2cc(F)cc(N3CCN(c4ccc(NS(=O)(=O)c5ccc(NC(CCN6CCC(C(=O)OCCCP(=O)(O)O)CC6)CSc6ccccc6)c(S(=O)(=O)C(F)(F)F)c5)cc4)CC3)c2)c(-c2ccc(Cl)cc2)n1C(C)C` (stereo not drawn), the viability, T/C (compound 0.1 µM) was 77.8% [middle of 14 runs]; the viability, T/C (compound 0.316 µM) was 71.6% [middle of 14 runs]; the viability, T/C (compound 1 µM) is 65% [middle of 14 runs]; the viability, T/C (compound 3.16 µM) is 52.8% [middle of 14 runs]; the viability, T/C (compound 10 µM) was 73.2% [middle of 14 runs]. For the same compound, the IC50 under setting [1] is more than 10000 nM.

For `Cc1nc(N2CCC3(CC2)COC(C)C3N)c(CO)nc1Sc1ccnc(N)c1Cl` (stereo not drawn), the viability, T/C by setting is: (compound 0.00949 µM) 105% and 96.7% and 89%; (compound 0.03 µM) 92.1% and 86.9% and 81.2%; (compound 0.0949 µM) 85.7% and 86% and 78.7%; (compound 0.3 µM) 92% and 75.2% and 66.9%; (compound 0.949 µM) 71.2% and 54.1% and 58.9%; (compound 3 µM) 54.9% and 42.4% and 43.2%. Also, the IC50 (curve of compound) is > 3000 nM and 1520 nM and 1800 nM.

Consider `Cn1ncnc1[C@H]1c2n[nH]c(=O)c3cc(F)cc(c23)N[C@@H]1c1ccc(F)cc1`, for which the viability, T/C is, setting by setting: (compound 0.000316 µM) 84.6% and 103% and 102%; (compound 0.001 µM) 85.7% and 93.6% and 83.1%; (compound 0.00316 µM) 83.3% and 95.1% and 85%; (compound 0.01 µM) 73.3% and 73.7% and 87.7%; (compound 0.0316 µM) 66.1% and 69.2% and 73.8%; (compound 0.1 µM) 67.4% and 65.3% and 60.4%. Besides, the IC50 (curve of compound) is more than 100 nM.

In the case of `NC(=O)C(=Cn1cnc(-c2cc(C(F)(F)F)cc(C(F)(F)F)c2)n1)c1cncnc1`, the viability, T/C is, setting by setting: (compound 0.000949 µM) 88.9% and 102% and 89.1%; (compound 0.003 µM) 93.4% and 99.6% and 101%; (compound 0.00949 µM) 79.4% and 90.6% and 81.3%; (compound 0.03 µM) 73.1% and 71.5% and 74%; (compound 0.0949 µM) 49.7% and 40.1% and 50.4%; (compound 0.3 µM) 13.5% and 13.7% and 12.4%. The IC50 (curve of compound) is 94.2 nM and 65.9 nM and 94.4 nM.

Turning to `NC1CCC(NC2CC2c2ccccc2)CC1` (stereo not drawn), the viability, T/C was 89% and 106% and 94% (compound 0.000316 µM); 76.7% and 90.3% and 92.3% (compound 0.001 µM); 75.3% and 86% and 84.9% (compound 0.00316 µM); 89% and 91.7% and 90.7% (compound 0.01 µM); 93.3% and 81.8% and 96.3% (compound 0.0316 µM); 88.3% and 94.6% and 95.1% (compound 0.1 µM). Further, for the setting “curve of compound”, the IC50 was more than 100 nM.

Regarding `O=C(c1cc(Cc2n[nH]c(=O)c3ccccc23)ccc1F)N1CCN(C(=O)C2CC2)CC1`, the viability, T/C reads like this: (compound 0.0316 µM) 83.7% and 85.7% and 88.2%; (compound 0.1 µM) 101% and 95% and 86.5%; (compound 0.316 µM) 76.7% and 88.8% and 89.9%; (compound 1 µM) 83.8% and 84.5% and 81.4%; (compound 3.16 µM) 69.5% and 85.8% and 85.3%; (compound 10 µM) 52.3% and 55.7% and 50%. For the same compound, the IC50 (curve of compound) is more than 10000 nM.

For `O=C(c1ccc(F)c(F)c1Nc1ccc(I)cc1F)N1CC(O)([C@@H]2CCCCN2)C1`, the viability, T/C reads like this: (compound 0.00316 µM) 92.8% and 93% and 99.5%; (compound 0.01 µM) 111% and 90% and 99.1%; (compound 0.0316 µM) 108% and 106% and 90.2%; (compound 0.1 µM) 124% and 100% and 114%; (compound 0.316 µM) 98.4% and 90% and 111%; (compound 1 µM) 57.7% and 54.8% and 65.7%. Besides, the IC50 (curve of compound) was more than 1000 nM.

In general, viability, T/C refers to the result in the treated group divided by that in the control group, in per cent. For orientation: IC50 means the concentration needed to halve the response being measured.
